Data from article PMC7956155, “Design and Evaluation of Peptide Dual-Agonists of GLP-1 and NPY2 Receptors for Glucoregulation and Weight Loss with Mitigated Nausea and Emesis” (Journal of Medicinal Chemistry, 2021).
Square brackets hold non-standard residues; d marks the D form. Ends that are not written are not given here.

How the values were obtained:
human GLP-1R [1] = target: T1, human GLP-1R (Homo sapiens, UniProt P43220); test: Taglite fluorescent competitive binding assay at GLP-1R against GLP-1red; settings: CHO-K1 cells, tracer GLP-1red 4 nM, duplicate independent runs
T1 sequence (P43220 24-463): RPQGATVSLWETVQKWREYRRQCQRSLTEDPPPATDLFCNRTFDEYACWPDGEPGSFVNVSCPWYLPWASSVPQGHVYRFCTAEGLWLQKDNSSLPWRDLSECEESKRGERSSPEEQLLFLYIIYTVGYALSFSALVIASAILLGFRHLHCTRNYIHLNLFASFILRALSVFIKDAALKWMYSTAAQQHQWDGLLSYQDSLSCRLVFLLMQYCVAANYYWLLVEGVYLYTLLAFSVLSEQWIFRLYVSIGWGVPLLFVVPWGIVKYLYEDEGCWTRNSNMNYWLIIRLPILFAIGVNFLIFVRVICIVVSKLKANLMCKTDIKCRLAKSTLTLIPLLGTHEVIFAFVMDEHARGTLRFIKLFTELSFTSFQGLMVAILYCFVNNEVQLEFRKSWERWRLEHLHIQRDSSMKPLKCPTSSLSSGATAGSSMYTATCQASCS

[2] = Pooled rat liver microsomal stability assay; type: in vitro ADME; settings: pooled male Sprague–Dawley rat liver microsomes 1 mg/mL, 30 μM peptide, 1 mM NADPH, pH 7.4, 37 °C, over 120 min, HPLC UV 206 nm, n = 3; standard error in brackets
Experimental: Pooled liver microsomes from a male Sprague–Dawley rat were purchased from Sigma-Aldrich. Microsomal incubations were performed in triplicate as independent data sets in 3 mM MgCl2, 25 mM KH2PO4 buffer at pH 7.4. Assays were performed at 500 μL total volume with 30 μM peptide, 1 mM NADPH, and 1 mg/mL pooled liver microsomes. Kanamycin at 200 μM was used as an internal standard. Pooled rat liver microsome assay showing data collected by HPLC. […] Assays were conducted at 37 °C with gentle rocking. […] Data were fit utilizing eqs 3–6.

human Y1-R = target: T2, human Y1-R (Homo sapiens, UniProt P25929); test: cAMP FRET reporter (H188) assay at Y1-R: counteraction of adenosine-stimulated cAMP in HEK293 cells; type: cell-based; settings: HEK cells with H188 biosensor, recombinant human Y1-R and endogenous A2b receptors; 2 μM adenosine; 95% CI in brackets, at least triplicate; read-out: Y1-R agonist action (IC50), decrease of adenosine-raised cAMP
T2 sequence (P25929 1-384): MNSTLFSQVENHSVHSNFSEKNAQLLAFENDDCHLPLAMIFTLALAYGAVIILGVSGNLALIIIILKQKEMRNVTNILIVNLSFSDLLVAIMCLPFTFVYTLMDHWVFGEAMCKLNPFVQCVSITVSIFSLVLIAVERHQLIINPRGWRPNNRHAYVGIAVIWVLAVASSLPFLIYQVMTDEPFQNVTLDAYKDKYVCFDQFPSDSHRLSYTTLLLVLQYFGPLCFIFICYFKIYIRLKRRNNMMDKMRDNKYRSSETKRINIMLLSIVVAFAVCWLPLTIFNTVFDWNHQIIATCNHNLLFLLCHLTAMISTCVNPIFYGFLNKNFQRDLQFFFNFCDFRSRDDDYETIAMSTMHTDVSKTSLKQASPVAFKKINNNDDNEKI

human GLP-1R [3] = target: T1, human GLP-1R; test: cAMP FRET reporter (H188) agonism assay at human GLP-1R in HEK293 cells; type: cell-based
Experimental: HEK293 cells stably expressing the human GLP-1R and virally transduced with H188 for FRET assays were obtained from Novo Nordisk A/S (Bagsvaerd, Denmark).[67] […] Post-transfection, cells were incubated for 48 h in fresh culture media. For real-time kinetic assays of FRET, cells were harvested and resuspended in 21 mL of SES buffer and plated at 196 μL per well. […] FRET assays and data analysis were performed using a FlexStation 3 microplate reader as described.
Cells were then transduced for 16 h with H188 virus at a density of 60 000 cells/well under conditions in which the multiplicity of infection was equivalent to 25 viral particles per cell. The culture media was removed and replaced by 200 μL/well of a standard extracellular saline (SES) solution supplemented with 11 mM glucose and 0.1% BSA. […] Real-time kinetic assays of FRET were performed using a FlexStation 3 microplate reader equipped with excitation and emission light monochromators (Molecular Devices, Sunnyvale, CA). […] The emission intensities were the averages of 15 excitation flashes for each time point per well. […] Prism 8.1 was also used for nonlinear regression analysis to quantify dose–response relationships.

rat GlucR = rat GlucR (Rattus norvegicus, UniProt P30082); test: cAMP FRET reporter (H188) agonism assay at GlucR in HEK293 cells; type: cell-based; settings: HEK293 cells stably expressing GlucR, H188 FRET biosensor; duplicate independent experiments; read-out: GlucR agonist action (EC50), increase of cytosolic cAMP
Sequence of rat GlucR (P30082 27-485): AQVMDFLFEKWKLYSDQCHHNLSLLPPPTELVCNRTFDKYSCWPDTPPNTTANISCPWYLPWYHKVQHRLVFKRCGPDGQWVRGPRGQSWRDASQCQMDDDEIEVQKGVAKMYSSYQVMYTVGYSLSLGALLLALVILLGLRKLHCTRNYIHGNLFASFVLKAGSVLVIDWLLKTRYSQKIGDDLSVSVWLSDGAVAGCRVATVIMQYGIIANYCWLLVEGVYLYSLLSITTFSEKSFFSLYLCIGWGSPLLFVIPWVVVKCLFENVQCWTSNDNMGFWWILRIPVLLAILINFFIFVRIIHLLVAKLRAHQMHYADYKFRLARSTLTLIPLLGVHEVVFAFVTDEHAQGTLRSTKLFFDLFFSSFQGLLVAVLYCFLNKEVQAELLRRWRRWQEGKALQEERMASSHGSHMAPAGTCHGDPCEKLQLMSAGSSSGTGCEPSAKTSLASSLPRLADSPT
Experimental: Plasmid encoding human Y2-R (I.D. NPYR20TN00) in pcDNA3.1 and human Y1-R (NPYR10TN00) were obtained from the cDNA Resource Center (Bloomsburg, PA). HEK293 cells stably expressing the rat GlucR were obtained from C. […] Adenovirus for transduction of HEK293 cells was generated by a commercial vendor (Vira-Quest, North Liberty, IA) using the shuttle vector pVQAd CMV K-NpA and the H188 plasmid provided by Prof. Kees Jalink.[74]
These assays were conducted as fully described by us previously.[70],[71] Briefly, HEK293 cells transiently or stably expressing recombinant GPCRs were plated at 80% confluency on 96-well clear-bottom assay plates (Costar 3904, Corning, NY). […] Real-time kinetic assays of FRET were performed using a FlexStation 3 microplate reader equipped with excitation and emission light monochromators (Molecular Devices, Sunnyvale, CA). Excitation light was delivered at 435/9 nm (455 nm cutoff), and emitted light was detected at 485 ± 15 nm (cyan fluorescent protein) or 535 ± 15 nm (yellow fluorescent protein).[68],[75] […] The 485/535 emission ratio was calculated for each well, and the mean ± SD values for 12 wells were averaged. […] Prism 8.1 was also used for nonlinear regression analysis to quantify dose–response relationships.

human Y2-R = target: T3, human Y2-R (Homo sapiens, UniProt P49146); test: cAMP FRET reporter (H188) assay at Y2-R: counteraction of adenosine-stimulated cAMP in HEK293 cells; type: cell-based; settings: HEK cells with H188 biosensor, recombinant human Y2-R and endogenous A2b receptors; 2 μM adenosine; 95% CI in brackets, at least triplicate; read-out: Y2-R agonist action (IC50), decrease of adenosine-raised cAMP
T3 sequence (P49146 1-381): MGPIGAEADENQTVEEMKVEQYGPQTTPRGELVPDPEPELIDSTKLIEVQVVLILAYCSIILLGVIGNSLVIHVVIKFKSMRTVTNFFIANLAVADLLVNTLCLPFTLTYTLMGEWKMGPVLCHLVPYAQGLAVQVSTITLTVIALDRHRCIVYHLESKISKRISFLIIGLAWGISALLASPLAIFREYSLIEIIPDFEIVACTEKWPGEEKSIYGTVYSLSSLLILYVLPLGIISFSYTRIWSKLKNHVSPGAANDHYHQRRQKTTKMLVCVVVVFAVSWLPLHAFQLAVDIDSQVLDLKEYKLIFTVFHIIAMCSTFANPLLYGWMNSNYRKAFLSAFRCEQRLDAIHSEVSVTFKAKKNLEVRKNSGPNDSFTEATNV

rat GLP-1R = target: T4, rat GLP-1R (Rattus norvegicus, UniProt P32301); type: cell-based
T4 sequence (P32301 22-463): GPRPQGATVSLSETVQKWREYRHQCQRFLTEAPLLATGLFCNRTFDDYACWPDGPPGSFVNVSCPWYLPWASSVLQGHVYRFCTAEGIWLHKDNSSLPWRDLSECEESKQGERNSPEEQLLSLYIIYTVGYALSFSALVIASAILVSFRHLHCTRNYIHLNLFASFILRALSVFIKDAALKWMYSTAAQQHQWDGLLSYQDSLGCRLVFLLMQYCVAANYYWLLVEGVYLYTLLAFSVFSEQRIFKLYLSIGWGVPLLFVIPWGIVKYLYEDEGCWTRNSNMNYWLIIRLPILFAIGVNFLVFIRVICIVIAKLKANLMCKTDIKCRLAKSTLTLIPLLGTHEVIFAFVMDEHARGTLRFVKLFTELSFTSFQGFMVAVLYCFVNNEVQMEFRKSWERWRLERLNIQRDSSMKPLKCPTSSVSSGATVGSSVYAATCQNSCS

Molecule	hill (competition binding at GLP-1R) (human GLP-1R [1])	CLlnt, intrinsic clearance in rat liver microsomes [2]	IC50 (human Y1-R) [nM]	EC50 (human GLP-1R [3]; HEK cells expressing human GLP-1R and cAMP biosensor H188, FRET, SES buffer pH 7.4, nonlinear regression, 95% CI in brackets, at least triplicate independent data sets, read-out: GLP-1R agonist action (EC50), increase of cytosolic cAMP) [nM]	IC50 (human GLP-1R [1]; nine concentrations 1 pM to 1 μM, range in brackets, read-out: IC50, competition binding at GLP-1R using red fluorescent GLP-1) [nM]	EC50 (rat GlucR) [nM]	IC50 (human Y2-R) [nM]	Kd (rat GLP-1R) [nM]	increased GLP-1R potency over GEP44 (human GLP-1R [3]; comparison of EC50 values) [%]
CC[C@H](C)[C@H](NC(=O)[C@H](Cc1ccccc1)NC(=O)[C@H](CC(C)C)NC(=O)[C@H](CCCNC(=N)N)NC(=O)[C@@H](NC(=O)[C@H](C)NC(=O)[C@H](CCC(=O)O)NC(=O)[C@H](CCC(=O)O)NC(=O)[C@H](CCC(=O)O)NC(=O)[C@H](CCSC)NC(=O)[C@H](CCC(N)=O)NC(=O)[C@H](CCCCN=[N+]=[N-])NC(=O)[C@H](CO)NC(=O)[C@H](CC(C)C)NC(=O)[C@H](CC(=O)O)NC(=O)[C@H](CO)NC(=O)[C@@H](NC(=O)[C@H](Cc1ccccc1)NC(=O)[C@@H](NC(=O)CNC(=O)[C@H](CCC(N)=O)NC(=O)[C@@H](CO)NC(=O)[C@@H](N)Cc1c[nH]cn1)[C@@H](C)O)[C@@H](C)O)C(C)C)C(=O)N[C@@H](CCC(=O)O)C(=O)N[C@@H](Cc1c[nH]c2ccccc12)C(=O)N[C@@H](CC(C)C)C(=O)N[C@@H](CCCCN)C(=O)N[C@@H](CC(N)=O)C(=O)N[C@@H](CCCNC(=N)N)C(=O)N[C@@H](Cc1c[nH]cn1)C(=O)N[C@@H](Cc1ccc(O)cc1)C(=O)N[C@@H](CC(C)C)C(=O)N[C@@H](CC(N)=O)C(=O)N[C@@H](CC(C)C)C(=O)N[C@H](C(=O)N[C@H](C(=O)N[C@@H](CCCNC(=N)N)C(=O)N[C@@H](CCC(N)=O)C(=O)N[C@@H](CCCNC(=N)N)C(=O)N[C@@H](Cc1ccc(O)cc1)C(N)=O)[C@@H](C)O)C(C)C [EP40]	–0.96								
CC[C@H](C)[C@H](NC(=O)[C@H](Cc1ccccc1)NC(=O)[C@H](CCC(=O)O)NC(=O)[C@H](CCCNC(=N)N)NC(=O)[C@@H](NC(=O)[C@H](C)NC(=O)[C@H](CCC(=O)O)NC(=O)[C@H](CCC(=O)O)NC(=O)[C@H](CCC(=O)O)NC(=O)[C@H](CC(C)C)NC(=O)[C@H](Cc1ccc(O)cc1)NC(=O)[C@H](CCCCN=[N+]=[N-])NC(=O)[C@H](CO)NC(=O)[C@H](CC(C)C)NC(=O)[C@H](CC(=O)O)NC(=O)[C@H](CO)NC(=O)[C@@H](NC(=O)[C@H](Cc1ccccc1)NC(=O)[C@@H](NC(=O)CNC(=O)[C@H](CCC(N)=O)NC(=O)[C@@H](CO)NC(=O)[C@@H](N)Cc1c[nH]cn1)[C@@H](C)O)[C@@H](C)O)C(C)C)C(=O)N[C@@H](C)C(=O)N[C@@H](Cc1c[nH]c2ccccc12)C(=O)N[C@@H](CC(C)C)C(=O)N[C@@H](CCCCN)C(=O)N[C@@H](CC(N)=O)C(=O)NCC(=O)NCC(=O)N1CCC[C@H]1C(=O)N[C@@H](CO)C(=O)N[C@@H](CCCNC(=N)N)C(=O)N[C@@H](Cc1c[nH]cn1)C(=O)N[C@@H](Cc1ccc(O)cc1)C(=O)N[C@@H](CC(C)C)C(=O)N[C@@H](CC(N)=O)C(=O)N[C@@H](CC(C)C)C(=O)N[C@H](C(=O)N[C@H](C(=O)N[C@@H](CCCNC(=N)N)C(=O)N[C@@H](CCC(N)=O)C(=O)N[C@@H](CCCNC(=N)N)C(=O)N[C@@H](Cc1ccc(O)cc1)C(N)=O)[C@@H](C)O)C(C)C [GEP44]		32.5 (1.18) μL/min/mg peptide	27	0.33	113	> 3000	10		
H[dS]QGTFTSDLSKQMEEEAVRLFIEWLKNGGPSRHYLNLVTRQRY-NH2 [EP44]	–1.56							0.12	~30
